Assay results as given in patent US11643430B2, “Porphyrin compound or salt thereof, cancer therapeutic agent, photosensitizer, and fluorescent probe” (M.T.3, Inc., priority 2020, dated 2023).

Key:
Human-derived A549 cells = experiment: Efficiency of uptake by cancer cells; type: cell-based; details: 3 μM, 12 hours incubation, fluorescence ex 418 nm / em 646 nm
Description: The compound of Structural Formula (III) to which a sulfur-containing sugar-chain is linked is more likely to accumulate in tumor. Regarding such an improvement in the accumulation, the following describes the evaluation of the efficiency of uptake of the compounds of structural Formulae (IIa) and (III) by cancer cells.
Human-derived A549 cells were used as cancer cells. Dulbecco's Modified Eagle Medium (DMEM) supplemented with 10% Fetal Bovine Serum (FBS: manufactured by EQUITECH-BIO, INC.) and 1% Penicillin Streptomycin Glutamine (Invitrogen (trademark)) was used as a culture medium, which will be described later. Phosphate buffered saline (PBS) was used as a cell washing solution, and PBS containing 0.05% trypsin and 0.02% EDTA was used as a cell detaching solution. A circular plastic petri dish (Greiner Bio-one, 628160) with a diameter of 6 cm was used as a culture container.
First, an A549 cell suspension was cultured on a culture medium. 100 μL of the cell suspension was added to each well of a black 96-well plate and cultured at 37° C. in a 5% CO2 atmosphere for a day. […] Furthermore, the concentrations of the photosensitizing agents inside the cells were quantified using a fluorescence micro plate reader (Infinite M200 Pro, manufactured by TECAN). For the fluorescence observation, the excitation wavelength was 418 nm, and the observation wavelength was 646 nm. […]

[1] = Fluorescence lifetime from fluorescence decay curves; type: physicochemical; details: monoexponential curve fitting, deconvolution method
Method: (§1) Next, the fluorescence quantum yields (Φf) and fluorescence lifetimes (τf) of the compounds were measured. Moreover, the quantum yields (ΦΔ) of singlet oxygen generated from the compounds of Structural Formulae (IIa) and (III) were measured.
Each of the fluorescence decay curves was subjected to curve fitting with a monoexponential function using a deconvolution method, and thus τf was determined.

[2] = Quantum yield of singlet oxygen by 1270 nm phosphorescence; type: physicochemical; details: in ethanol, absorbance 0.1, irradiated at 355 nm, phosphorescence at 1270 nm, TPPS standard; sodium salt
Method: as §1
Next, the measurement of ΦΔ will be described. First, the compounds of Structural Formula (IIa) and (III) were each dissolved in ethanol at such a concentration that gave an absorbance of 0.1, and then were irradiated with light at 355 nm using Nd^3+:YAG LASER (LS-2137U, manufactured by Lotis TII). Next, singlet oxygen was measured using a self-produced infrared emission measurement apparatus in which a near-infrared photomultiplier tube (R5509-42, manufactured by Hamamatsu Photonics K.K.) is used. It should be noted that singlet oxygen was measured 17 times, and the average value was shown as a phosphorescence spectrum in FIG. 4. Singlet oxygen emits phosphorescence at a near-infrared wavelength 1270 nm. Therefore, in this specification, ΦΔ was determined by measuring the intensity of such phosphorescence. TPPS (ΦΔ=0.63) was used as a standard substance for determination of ΦΔ. ΦΔ of the compound of Structural Formula (IIa) and ΦΔ of the compound of Structural Formula (III) were determined as 0.57 and 0.53, respectively.

[3] = Fluorescence quantum yield, absolute PL quantum yield spectrometer; type: physicochemical
Method: as §1

[4] = standard for determination of ΦΔ; cited from earlier work

Molecule: 3-trimethylsilyl-1-benzenecarboxyamide,N-[3-n-propyl-α-D-quinovopyranoside]-5-[10,15,20-tris(3-methoxycarbonyl-5-trimethylsilylphenyl)porphyrin] sodium salt [IIa]
- relative uptake efficiency versus compound of Structural Formula (III) (Human-derived A549 cells): 1.8 times
- fluorescence lifetime (τf) [1]: 9.2
- quantum yield of singlet oxygen (ΦΔ) [2]: 0.53
- fluorescence quantum yield (Φf) [3]: 0.063

Molecule: COC(=O)c1cc(-c2c3nc(c(-c4cc(C(=O)OC)cc([Si](C)(C)C)c4)c4ccc([nH]4)c(-c4cc(C(=O)OC)cc([Si](C)(C)C)c4)c4nc(c(-c5cc(C(=O)NCCCO[C@H]6O[C@H](CO)[C@@H](O)[C@H](O)[C@H]6O)cc([Si](C)(C)C)c5)c5ccc2[nH]5)C=C4)C=C3)cc([Si](C)(C)C)c1 [IId, 3-trimethylsilyl-1-benzenecarboxyamide,N-[3-n-propyl-α-D-glucopyranoside]-5-[10,15,20-tris(3-methoxycarbonyl-5-trimethylsilylphenyl)porphyrin]]
- fluorescence lifetime (τf) [1]: 9.3
- fluorescence quantum yield (Φf) [3]: 0.056

Molecule: O=S(=O)(O)c1ccc(-c2c3nc(c(-c4ccc(S(=O)(=O)O)cc4)c4ccc([nH]4)c(-c4ccc(S(=O)(=O)O)cc4)c4nc(c(-c5ccc(S(=O)(=O)O)cc5)c5ccc2[nH]5)C=C4)C=C3)cc1 [TPPS]
- quantum yield of singlet oxygen (ΦΔ) of standard substance [4]: 0.63
